Reference: patent publication US11306063B2, “Heterocyclic naphthoquinones derivatives for use in the treatment of cancers including Cushing disease” (Commissariat a l'Energie Atomique et aux Energies …, priority 2016, dated 2022)

Key:
[1] = test system: MDA-MB231 triple negative breast cancer cells; assay: Wounding assay, MDA-MB231; assay type: cell-based; settings: from 1 μM concentration; mitomycine 2 μg/ml; 24 hours
Protocol: In addition the migratory capacity of two additional triple negative breast cancer cells lines: the metastatic MDA-MB231 and BT-549 showing high migratory capacity was analyzed in a classical wound assay.
BT-549, MDA-MB231 cell lines were issued from the American Type Culture Collection (ATCC). For wounding assays, cells were seeded in 24-well microplates (Culture Insert 21, ref 250210, Ibidi®). […] Cell spreading was then visualized during 24 hours by videomicroscopy (1 acquisition each 30 min). A representative picture of 3 is presented at 0 and 12 hours of drug treatment out. In Graphs, curves represents the empty surface (devoid of cells) between the two cell layers (delimited by using Image J software).

USP8 = settings: increasing concentrations; HEK293T lysate; FIG. 13D
Protocol: FIG. 13 D: Flag-USP8 constructs were transfected in HEK293T cells for 48 hours using standard protocols. After cell lysis, the whole cell lysate was incubated with HA-Ub-Vs at 1.5 μM during 12 hours. Then the mixture was separated on SDS-page gel and immunoblotted with anti Flag antibodies (to reveal USP8). The upper band corresponds to USP8 linked to HA-Ub-Vs while the lower band corresponds to free USP8. Immunoblot with anti-tubuline antibodies served as internal loading control.

p53 in HCT116 cells = assay: Protein expression by immunoblot, HCT116; assay type: cell-based, human; settings: dose dependent; FIG. 7B
Protocol: Actin or Tubulin (Tub) serve as loading controls. One representative experiment out of three is presented.
Cells were treated by either DMSO (0.5%) or increasing doses of the selected molecules from 1 μM to 10 μM over 6 to 24 hours as indicated. Cell lysates were analyzed by immunoblotting following standard procedure using primary antibodies from Cell Signaling: anti-total P53 (#9282), anti-phosphoP53 Kit (#9919), anti-cyclinD1 (#2926), anti-FAS (#3189), anti EGFR (#4267), anti-Phospho (tyr1068) EGFR (#2234), anti Met (#4560), anti-Akt (#9272), anti Phospho(Ser473)-Akt (#9271) or anti-Myc (Santa Cruz Technology #Sc-40). Tubulin was detected using anti α-tubulin primary antibody (in-house: the polyclonal Glu-tubulin antibody (L4) is available commercially from Abcys (Paris, France)). HRP-coupled anti-rabbit (#A6154) and anti-mouse (#A4416) secondary antibodies were purchased from Sigma. HRP activity was detected through HRP chemoluminescence detection reagent (Millipore, #WBLUF0100). Apoptotic cell death induction was observed through the observation of PARP cleavage using anti-PARP primary antibodies anti-PARP (46D11) (#9532). Positive control was Epotoside at 50 μM or 100 μM, a known drug inducing cancerous cell death by apoptosis.

USP8-FL = USP8-FL (Homo sapiens, UniProt P40818); assay: biochemical
Sequence of USP8-FL (P40818 whole entry): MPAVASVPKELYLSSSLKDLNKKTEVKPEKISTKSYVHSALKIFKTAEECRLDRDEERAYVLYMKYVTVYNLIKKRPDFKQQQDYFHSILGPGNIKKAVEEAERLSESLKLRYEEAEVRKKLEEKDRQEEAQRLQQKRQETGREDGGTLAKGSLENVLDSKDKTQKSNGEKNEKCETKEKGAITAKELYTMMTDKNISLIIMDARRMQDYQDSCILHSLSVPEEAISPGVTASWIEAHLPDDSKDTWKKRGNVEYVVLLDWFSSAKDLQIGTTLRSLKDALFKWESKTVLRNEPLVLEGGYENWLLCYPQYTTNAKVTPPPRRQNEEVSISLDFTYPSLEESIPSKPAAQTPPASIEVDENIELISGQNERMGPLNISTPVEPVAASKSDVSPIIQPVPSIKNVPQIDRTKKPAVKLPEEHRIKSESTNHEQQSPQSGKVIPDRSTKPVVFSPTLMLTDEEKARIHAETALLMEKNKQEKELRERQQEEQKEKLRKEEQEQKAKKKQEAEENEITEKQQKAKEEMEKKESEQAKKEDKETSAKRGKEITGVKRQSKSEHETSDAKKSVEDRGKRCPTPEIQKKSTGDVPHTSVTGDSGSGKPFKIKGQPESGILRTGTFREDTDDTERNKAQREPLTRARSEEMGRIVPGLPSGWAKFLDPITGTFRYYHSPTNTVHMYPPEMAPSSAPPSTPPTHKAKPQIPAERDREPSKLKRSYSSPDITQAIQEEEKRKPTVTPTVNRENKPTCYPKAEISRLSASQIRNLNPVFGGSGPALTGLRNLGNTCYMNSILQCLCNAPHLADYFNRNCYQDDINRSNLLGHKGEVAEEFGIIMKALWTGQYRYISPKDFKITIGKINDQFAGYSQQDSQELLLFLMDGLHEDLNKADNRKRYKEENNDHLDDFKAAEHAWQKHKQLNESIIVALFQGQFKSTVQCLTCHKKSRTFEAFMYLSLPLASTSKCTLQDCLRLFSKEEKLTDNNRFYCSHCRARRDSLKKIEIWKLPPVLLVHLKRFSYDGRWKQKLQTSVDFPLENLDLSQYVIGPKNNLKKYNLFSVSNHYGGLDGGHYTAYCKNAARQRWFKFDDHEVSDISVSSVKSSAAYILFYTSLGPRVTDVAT

USP8^CD = molecular target: T1, USP8^CD (Homo sapiens, UniProt P40818); assay: tri-Ub^K63 chains hydrolysis by USP8^CD (western blot); assay type: biochemical; settings: FIG. 1D, at the indicated concentrations
T1 construct: the purified catalytic domain of USP8 (USP8^CD, in-house purified); made in house; host or cells: E. coli BL21 Gold
T1 sequence (P40818 777-1109 limits assumed): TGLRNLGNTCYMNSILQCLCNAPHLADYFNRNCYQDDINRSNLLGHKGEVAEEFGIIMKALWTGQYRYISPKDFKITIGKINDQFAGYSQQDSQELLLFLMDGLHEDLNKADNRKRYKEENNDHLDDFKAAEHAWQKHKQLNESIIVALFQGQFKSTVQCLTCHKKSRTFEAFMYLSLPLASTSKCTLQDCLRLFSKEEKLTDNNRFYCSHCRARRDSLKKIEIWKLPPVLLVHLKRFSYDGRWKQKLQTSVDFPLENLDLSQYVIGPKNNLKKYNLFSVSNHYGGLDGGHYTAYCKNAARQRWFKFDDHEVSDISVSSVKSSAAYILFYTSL
Protocol: (§1) The degradation of purified lysine 63-linked tree-Ubiquitin chains (triUb^K63) over a 90 minutes period of time was visualized by western blot analysis. […] Enzymatic assay was performed in a HEPES buffer (50 mM pH7.4, 150 mM NaCl, 0.5 mM EDTA, 2% glycerol, 0.2 mg/ml BSA, 5 mMDTT).

USP2^CD = molecular target: T2, USP2^CD (Homo sapiens, UniProt O75604); assay: tri-Ub^K63 chains hydrolysis by USP2^CD (western blot); assay type: biochemical; settings: FIG. 1C, at the indicated concentrations
T2 construct: The purified catalytic domain of USP2 (USP2^CD, in-house purified); His; made in house; host or cells: E. coli BL21 Gold
T2 sequence (O75604 267-599 limits assumed): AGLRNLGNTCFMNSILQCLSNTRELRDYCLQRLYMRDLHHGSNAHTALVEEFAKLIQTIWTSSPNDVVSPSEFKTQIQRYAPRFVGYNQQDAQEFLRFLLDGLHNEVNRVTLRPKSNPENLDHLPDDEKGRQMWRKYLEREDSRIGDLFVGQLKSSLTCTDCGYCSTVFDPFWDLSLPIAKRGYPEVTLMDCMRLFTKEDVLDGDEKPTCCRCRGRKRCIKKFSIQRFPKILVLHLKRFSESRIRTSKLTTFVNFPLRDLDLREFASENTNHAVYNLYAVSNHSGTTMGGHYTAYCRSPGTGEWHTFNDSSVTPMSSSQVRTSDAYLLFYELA
Protocol: as §1

Row | Structure (SMILES) | cell migration in wounding assay, MDA-MB231 [1] | HA-Ub-VS binding to USP8 in the whole cell lysate (USP8) | p53 expression, HCT-116 (p53 in HCT116 cells) | IC50 (USP8-FL) | inhibition of tri-Ub^K63 chains hydrolysis by USP8^CD (USP8^CD) | inhibition of tri-Ub^K63 chains hydrolysis by USP2^CD (USP2^CD)
1 | CCCCS(=O)(=O)Cc1nc2c(nc1CS(=O)(=O)CCCC)C(=O)c1ccccc1C2=O [PCR6236] | prevents triple negative breast cancer cell migration | decreased HA-Ub-VS binding to USP8 | restored high levels of p53 expression | < 0.03 µM | – | –
2 | CCCCS(=O)(=O)Cc1nc2c(o1)C(=O)c1ccccc1C2=O [PCR9301] | – | – | – | – | full inhibition | full inhibition
